pEC50: −log10 of the molar value.
Tests used:
[1] = Cytotoxicity in HepG2 cells, Resazurin viability assay; settings: human, HepG2 cells
HBV = assay: Anti-HBV activity, HepG2.117 inducible HBV producing cell line (Tet-off), intracellular HBV DNA by realtime PCR; format: cell-based; settings: Hepatitis B virus, 72 h; HepG2.117 cells, 3 days of treatment, intracellular HBV DNA; read-out: HepG2 117 EC50

| Compound | CC50 at 4 days [1] [nM] | pEC50 (HBV) |
| --- | --- | --- |
| Cc1c(C(=O)C(=O)NC2(C(F)(F)F)CC2)cc(C(=O)Nc2ccc(F)c(C#N)c2)n1C [Compound 57, N-(3-cyano-4-fluoro-phenyl)-1,5-dimethyl-4-[2-oxo-2-[[1-(trifluoromethyl)-cyclopropyl]amino]acetyl]pyrrole-2-carboxamide] | > 25000 | 8.22 |
| Cc1c(C(=O)C(=O)NC(C)(C)C(F)(F)F)cc(C(=O)Nc2ccc(F)c(C#N)c2)n1C [Compound 58, N-(3-cyano-4-fluoro-phenyl)-1,5-dimethyl-4-[2-oxo-2-[(2,2,2-trifluoro-1,1-dimethyl-ethyl)amino]acetyl]pyrrole-2-carboxamide] | > 25000 | 8.22 |
| Cc1c(C(=O)C(=O)NC(C)(C)C)cc(C(=O)Nc2ccc(F)c(C#N)c2)n1C [Compound 59, 4-[2-(tert-butylamino)-2-oxo-acetyl]-N-(3-cyano-4-fluoro-phenyl)-1,5-dimethyl-pyrrole-2-carboxamide] | > 25000 | 8.40 |
| Cc1c(C(=O)C(=O)NC2(C)COC2)cc(C(=O)Nc2ccc(F)c(C#N)c2)n1C [Compound 60, N-(3-cyano-4-fluoro-phenyl)-1,5-dimethyl-4-[2-[(3-methyloxetan-3-yl)-amino]-2-oxo-acetyl]pyrrole-2-carboxamide] | > 25000 | 7.96 |
| C[C@@H](NC(=O)C(=O)c1cc(C(=O)Nc2ccc(F)c(C#N)c2)n(C)c1C1CC1)C(F)(F)F [Compound 61, N-(3-cyano-4-fluoro-phenyl)-5-cyclopropyl-1-methyl-4-[2-oxo-2-[[(1R)-2,2,2-trifluoro-1-methyl-ethyl]amino]acetyl]pyrrole-2-carboxamide] | > 25000 | 6.92 |
| Cc1c(C(=O)C(=O)N[C@H]2CCN(C)C[C@H]2O)cc(C(=O)Nc2ccc(F)c(C#N)c2)n1C [Compound 62, N-(3-cyano-4-fluoro-phenyl)-4-[2-[[(3R,4S)-3-hydroxy-1-methyl-4-piperidyl]amino]-2-oxo-acetyl]-1,5-dimethyl-pyrrole-2-carboxamide] | > 25000 | 6.64 |
| CCCC[C@@H](CO)NC(=O)C(=O)c1cc(C(=O)Nc2ccc(F)c(C#N)c2)n(C)c1C [Compound 63, N-(3-cyano-4-fluoro-phenyl)-4-[2-[[(1S)-1-(hydroxymethyl)pentyl]amino]-2-oxo-acetyl]-1,5-dimethyl-pyrrole-2-carboxamide] | > 25000 | 6.68 |
| C[C@@H](NC(=O)C(=O)c1cc(C(=O)Nc2ccc(F)c(C#N)c2)n(C)c1)C(F)(F)F [Compound 64, N-(3-cyano-4-fluoro-phenyl)-1-methyl-4-[2-oxo-2-[[(1R)-2,2,2-trifluoro-1-methyl-ethyl]amino]acetyl]pyrrole-2-carboxamide] | > 25000 | 7.18 |
| Cc1c(C(=O)C(=O)N[C@H]2CCC[C@@H]2O)cc(C(=O)Nc2ccc(F)c(C#N)c2)n1C [Compound 65, N-(3-cyano-4-fluoro-phenyl)-4-[2-[[(1S,2S)-2-hydroxycyclopentyl]amino]-2-oxo-acetyl]-1,5-dimethyl-pyrrole-2-carboxamide] | > 25000 | 6.80 |
| Cc1c(C(=O)C(=O)N[C@H]2[C@H](C)CC[C@H]2O)cc(C(=O)Nc2ccc(F)c(C#N)c2)n1C [Compound 66, N-(3-cyano-4-fluoro-phenyl)-4-[2-[[(1S,2R,5R)-2-hydroxy-5-methyl-cyclopentyl]amino]-2-oxo-acetyl]-1,5-dimethyl-pyrrole-2-carboxamide] | > 25000 | 6.96 |
| Cc1c(C(=O)C(=O)N[C@H]2CCCC[C@@H]2O)cc(C(=O)Nc2ccc(F)c(C#N)c2)n1C [Compound 67, N-(3-cyano-4-fluoro-phenyl)-4-[2-[[(1S,2S)-2-hydroxycyclohexyl]amino]-2-oxo-acetyl]-1,5-dimethyl-pyrrole-2-carboxamide] | > 25000 | 7.03 |
| Cc1c(C(=O)C(=O)N[C@H](CO)C(C)C)cc(C(=O)Nc2ccc(F)c(C#N)c2)n1C [Compound 68, N-(3-cyano-4-fluoro-phenyl)-4-[2-[[(1S)-1-(hydroxymethyl)-2-methyl-propyl]amino]-2-oxo-acetyl]-1,5-dimethyl-pyrrole-2-carboxamide] | > 25000 | 7.11 |
| CC[C@H](C)[C@@H](CO)NC(=O)C(=O)c1cc(C(=O)Nc2ccc(F)c(C#N)c2)n(C)c1C [Compound 69, N-(3-cyano-4-fluoro-phenyl)-4-[2-[[(1S,2S)-1-(hydroxymethyl)-2-methyl-butyl]amino]-2-oxo-acetyl]-1,5-dimethyl-pyrrole-2-carboxamide] | > 25000 | 7.31 |
| COCC(C)(CCO)NC(=O)C(=O)c1cc(C(=O)Nc2ccc(F)c(C#N)c2)n(C)c1C (stereo not drawn) [Compound 70, N-(3-cyano-4-fluoro-phenyl)-4-[2-[[3-hydroxy-1-(methoxymethyl)-1-methyl-propyl]amino]-2-oxo-acetyl]-1,5-dimethyl-pyrrole-2-carboxamide] | > 25000 | 7.60 |
| Cc1c(C(=O)C(=O)NC2(CO)COC2)cc(C(=O)Nc2ccc(F)c(C#N)c2)n1C [Compound 71, N-(3-cyano-4-fluoro-phenyl)-4-[2-[[3-(hydroxymethyl)oxetan-3-yl]amino]-2-oxo-acetyl]-1,5-dimethyl-pyrrole-2-carboxamide] | > 25000 | 7.62 |
| Cc1c(C(=O)C(=O)NC(C)C(C)(C)O)cc(C(=O)Nc2ccc(F)c(C#N)c2)n1C (stereo not drawn) [Compound 72, N-(3-cyano-4-fluoro-phenyl)-4-[2-[(2-hydroxy-1,2-dimethyl-propyl)amino]-2-oxo-acetyl]-1,5-dimethyl-pyrrole-2-carboxamide] | > 25000 | 7.74 |
| Cc1c(C(=O)C(=O)NC2(CO)CC2)cc(C(=O)Nc2ccc(F)c(C#N)c2)n1C [Compound 73, N-(3-cyano-4-fluoro-phenyl)-4-[2-[[1-(hydroxymethyl)cyclopropyl]amino]-2-oxo-acetyl]-1,5-dimethyl-pyrrole-2-carboxamide] | > 25000 | 7.77 |
| Cc1c(C(=O)C(=O)NC(CCO)C2CC2)cc(C(=O)Nc2ccc(F)c(C#N)c2)n1C (stereo not drawn) [Compound 74, N-(3-cyano-4-fluoro-phenyl)-4-[2-[(1-cyclopropyl-3-hydroxy-propyl)-amino]-2-oxo-acetyl]-1,5-dimethyl-pyrrole-2-carboxamide] | > 25000 | 7.82 |
| CCCC[C@H](CO)NC(=O)C(=O)c1cc(C(=O)Nc2ccc(F)c(C#N)c2)n(C)c1C [Compound 75, N-(3-cyano-4-fluoro-phenyl)-4-[2-[[(1R)-1-(hydroxymethyl)pentyl]amino]-2-oxo-acetyl]-1,5-dimethyl-pyrrole-2-carboxamide] | > 25000 | 7.85 |
| CCC(C)(CO)NC(=O)C(=O)c1cc(C(=O)Nc2ccc(F)c(C#N)c2)n(C)c1C (stereo not drawn) [Compound 76, N-(3-cyano-4-fluoro-phenyl)-4-[2-[[1-(hydroxymethyl)-1-methyl-propyl]-amino]-2-oxo-acetyl]-1,5-dimethyl-pyrrole-2-carboxamide] | > 25000 | 7.89 |
| Cc1c(C(=O)C(=O)NC(C)(CO)C2CC2)cc(C(=O)Nc2ccc(F)c(C#N)c2)n1C (stereo not drawn) [Compound 77, N-(3-cyano-4-fluoro-phenyl)-4-[2-[(1-cyclopropyl-2-hydroxy-1-methyl-ethyl)amino]-2-oxo-acetyl]-1,5-dimethyl-pyrrole-2-carboxamide] | > 25000 | 7.92 |
